Data: paper PMC8509773, “3-Pyridinylidene Derivatives of Chemically Modified Lupane and Ursane Triterpenes as Promising Anticancer Agents by Targeting Apoptosis” (International Journal of Molecular Sciences, 2021)

Tests used:
Experiment in all cases: NCI-60 SRB screening (one-dose and five-dose)
Format in all cases: cell-based, human
[1] = system: SK-MEL-2; conditions: 48 h
Outline: (§1)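 Growth inhibition is scored with sulforhodamine B after 48 h of continuous compound exposure. An MG_MID averages each parameter over the whole cell panel, insensitive lines being counted at the top tested concentration.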

[2] = system: U251; conditions: 48 h
Outline: (§2)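 Cells are treated with test compound at a single concentration for 48 h, then stained with SRB; optical readings relative to untreated wells estimate viability or growth.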

[3] = system: NCI-H522; conditions: 48 h
Outline: as §2

[4] = system: MCF7; conditions: 48 h
Outline: (§3)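 After a 48-h incubation with compound, cellular protein was stained with SRB and growth estimated by spectrophotometry relative to untreated controls.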

[5] = system: HCT-15; conditions: 48 h
Outline: as §3

[6] = system: CAKI-1; conditions: 48 h
Outline: as §1

[7] = system: NCI-H226; conditions: 48 h
Outline: as §3

[8] = system: RPMI-8226; conditions: 48 h
Outline: as §3

[9] = system: NCI-H23; conditions: 48 h
Outline: as §1

[10] = system: SW-620; conditions: 48 h
Outline: as §3

[11] = system: NCI-H460; conditions: 48 h
Outline: as §3

[12] = system: HOP-62; conditions: 48 h
Outline: as §3

[13] = system: SNB-19; conditions: 48 h
Outline: as §3

[14] = system: HT29; conditions: 48 h
Outline: as §1

[15] = system: BT-549; conditions: 48 h
Outline: as §2

[16] = system: LOX IMVI; conditions: Homo sapiens, five dose 0.01–100 μM, 48 h
Outline: as §2

[17] = system: NCI-H322M; conditions: 48 h
Outline: as §2

[18] = system: OVCAR-8; conditions: 48 h
Outline: as §1

[19] = system: TK-10; conditions: 48 h
Outline: as §2

[20] = system: IGROV1; conditions: 48 h
Outline: as §1

[21] = system: M14; conditions: 48 h
Outline: as §2

[22] = system: NCI/ADR-RES; conditions: 48 h
Outline: as §3

[23] = system: HCC-2998; conditions: 48 h
Outline: as §1

[24] = system: UACC-62; conditions: 48 h
Outline: as §3

[25] = system: MDA-MB-468; conditions: 48 h
Outline: as §3

[26] = system: K-562; conditions: 48 h
Outline: as §2

[27] = system: OVCAR-5; conditions: 48 h
Outline: as §3

[28] = system: HS 578T; conditions: 48 h
Outline: as §1

[29] = system: HL-60(TB); conditions: 48 h
Outline: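 Spectrophotometric SRB end point; 48-h drug exposure; percent of untreated-control growth reported.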

[30] = system: SR; conditions: 48 h
Outline: as §2

[31] = system: MDA-MB-231/ATCC; conditions: 48 h
Outline: as §3

[32] = system: A498; conditions: 48 h
Outline: as §2

[33] = system: SK-MEL-28; conditions: 48 h
Outline: as §1

[34] = system: RXF 393; conditions: 48 h
Outline: as §2

[35] = system: SF-295; conditions: 48 h
Outline: as §3

[36] = system: SK-OV-3; conditions: 48 h
Outline: as §3

[37] = system: OVCAR-3; conditions: 48 h
Outline: as §3

[38] = system: HOP-92; conditions: 48 h
Outline: as §1

[39] = system: KM-12; conditions: 48 h
Outline: as §3

[40] = system: PC-3; conditions: 48 h
Outline: as §3

[41] = Homo sapiens, five dose 0.01–100 μM

COC(=O)[C@]12CC[C@@H](C(=O)/C=C/c3cccnc3)[C@@H]1[C@H]1CC[C@@H]3[C@@]4(C)C/C(=C\c5cccnc5)C(=O)C(C)(C)[C@@H]4CC[C@@]3(C)[C@]1(C)CC2 [Compound 7, methyl 2,30-bis-(3-pyridinylidene)-3,20-dioxo-lup-28-oate]
GI50 ([1]; Homo sapiens, SK-MEL-2, five dose 0.01–100 μM): 470 nM
Growth Percent ([1]; SK-MEL-2, 10 μM): -61.15%
GI50 ([2]; Homo sapiens, U-251, U251, five dose 0.01–100 μM): 360 nM
Growth Percent ([2]; U251, 10 μM): −87.90%
GI50 ([3]; Homo sapiens, NCI-H522, five dose 0.01–100 μM): 660 nM
Growth Percent ([3]; NCI-H522, 10 μM): −59.72%
GI50 ([4]; Homo sapiens, MCF7, five dose 0.01–100 μM): 380 nM
Growth Percent ([4]; MCF7, 10 μM): −54.19%
Growth Percent ([5]; HCT-15, 10 μM): −46.22%
GI50 ([5]; Homo sapiens, HCT-15, five dose 0.01–100 μM): 240 nM
Growth Percent ([6]; CAKI-1, 10 μM): −78.75%
GI50 ([6]; Homo sapiens, CAKI-1, five dose 0.01–100 μM): 1090 nM
GI50 ([7]; Homo sapiens, NCI-H226, five dose 0.01–100 μM): 1480 nM
Growth Percent ([7]; NCI-H226, 10 μM): −44.44%
GI50 ([8]; Homo sapiens, RPMI-8226, five dose 0.01–100 μM): 240 nM
Growth Percent ([8]; RPMI-8226, 10 μM): −28.73%
GI50 ([9]; Homo sapiens, NCI-H23, five dose 0.01–100 μM): 350 nM
Growth Percent ([9]; NCI-H23, 10 μM): −48.31%
GI50 ([10]; Homo sapiens, SW-620, five dose 0.01–100 μM): 300 nM
Growth Percent ([10]; SW-620, 10 μM): −67.32%
GI50 ([11]; Homo sapiens, NCI-H460, five dose 0.01–100 μM): 830 nM
Growth Percent ([11]; NCI-H460, 10 μM): −78.43%
Growth Percent ([12]; HOP-62, 10 μM): −85.57%
GI50 ([12]; Homo sapiens, HOP-62, five dose 0.01–100 μM): 690 nM
GI50 ([13]; Homo sapiens, SNB-19, five dose 0.01–100 μM): 690 nM
Growth Percent ([13]; SNB-19, 10 μM): −87.62%
Growth Percent ([14]; HT29, 10 μM): −45.47%
GI50 ([14]; Homo sapiens, HT-29, HT29, five dose 0.01–100 μM): 320 nM
Growth Percent ([15]; BT-549, 10 μM): −92.12%
GI50 ([15]; Homo sapiens, BT-549, five dose 0.01–100 μM): 220 nM
GI50 [16]: 210 nM
Growth Percent ([17]; 10 μM): −80.71%
GI50 [17, 41]: 1480 nM
GI50 ([18]; Homo sapiens, OVCAR-8, five dose 0.01–100 μM): 340 nM
Growth Percent ([18]; OVCAR-8, 10 μM): −34.25%
GI50 ([19]; Homo sapiens, TK-10, five dose 0.01–100 μM): 650 nM
Growth Percent ([19]; TK-10, 10 μM): −60.49%
GI50 ([20]; Homo sapiens, IGROV-1, IGROV1, five dose 0.01–100 μM): 270 nM
Growth Percent ([20]; IGROV1, 10 μM): −87.88%
GI50 ([21]; Homo sapiens, M14, five dose 0.01–100 μM): 310 nM
Growth Percent ([21]; M14, 10 μM): −80.31%
Growth Percent ([22]; 10 μM): −39.38%
GI50 [22, 41]: 430 nM
Growth Percent ([23]; HCC-2998, 10 μM): −55.45%
GI50 ([23]; Homo sapiens, HCC-2998, five dose 0.01–100 μM): 670 nM
GI50 ([24]; Homo sapiens, UACC-62, five dose 0.01–100 μM): 400 nM
Growth Percent ([24]; UACC-62, 10 μM): −67.85%
GI50 ([25]; Homo sapiens, MDA-MB-468, five dose 0.01–100 μM): 270 nM
Growth Percent ([25]; MDA-MB-468, 10 μM): −76.12%
GI50 ([26]; Homo sapiens, K562, K-562, five dose 0.01–100 μM): 330 nM
Growth Percent ([26]; K-562, 10 μM): −21.61%
GI50 ([27]; Homo sapiens, OVCAR-5, five dose 0.01–100 μM): 410 nM
Growth Percent ([27]; OVCAR-5, 10 μM): −62.74%
Growth Percent ([28]; 10 μM): −49.05%
GI50 [28, 41]: 460 nM
Growth Percent ([29]; 10 μM): −30.17%
GI50 [29, 41]: 250 nM
Growth Percent ([30]; 10 μM): −14.07%
GI50 [30, 41]: 270 nM
Growth Percent ([31]; 10 μM): −81.32%
GI50 [31, 41]: 470 nM
Growth Percent ([32]; A498, 10 μM): −91.17%
GI50 ([32]; Homo sapiens, A498, five dose 0.01–100 μM): 180 nM
GI50 ([33]; Homo sapiens, SK-MEL-28, five dose 0.01–100 μM): 240 nM
Growth Percent ([33]; SK-MEL-28, 10 μM): −96.28%
GI50 ([34]; Homo sapiens, RXF 393, five dose 0.01–100 μM): 270 nM
Growth Percent ([34]; RXF 393, 10 μM): −93.62%
GI50 ([35]; Homo sapiens, SF-295, five dose 0.01–100 μM): 440 nM
Growth Percent ([35]; SF-295, 10 μM): −98.52%
GI50 ([36]; Homo sapiens, SK-OV-3, five dose 0.01–100 μM): 1430 nM
Growth Percent ([36]; SK-OV-3, 10 μM): −23.10%
GI50 ([37]; Homo sapiens, OVCAR-3, five dose 0.01–100 μM): 270 nM
Growth Percent ([37]; OVCAR-3, 10 μM): −93.24%
Growth Percent ([38]; HOP-92, 10 μM): −79.86%
GI50 ([38]; Homo sapiens, HOP-92, five dose 0.01–100 μM): 530 nM
GI50 ([39]; Homo sapiens, KM12, KM-12, five dose 0.01–100 μM): 1080 nM
Growth Percent ([39]; KM-12, 10 μM): −74.98%
GI50 ([40]; Homo sapiens, PC-3, five dose 0.01–100 μM): 420 nM
Growth Percent ([40]; PC-3, 10 μM): −14.12%
